Experimental data from ChEMBL document CHEMBL5653631, “A Potent and Selective ULK1 Inhibitor Suppresses Autophagy and Sensitizes Cancer Cells to Nutrient Stress” (iScience, 2018).

Key:
[1] = molecular target: T1, Ephrin type-B receptor 4 (Homo sapiens) (UniProt P54760); test: Inhibition of human recombinant EphB4 at 500 nM in presence of ATP by radiometric assay relative to control
T1 sequence (whole entry): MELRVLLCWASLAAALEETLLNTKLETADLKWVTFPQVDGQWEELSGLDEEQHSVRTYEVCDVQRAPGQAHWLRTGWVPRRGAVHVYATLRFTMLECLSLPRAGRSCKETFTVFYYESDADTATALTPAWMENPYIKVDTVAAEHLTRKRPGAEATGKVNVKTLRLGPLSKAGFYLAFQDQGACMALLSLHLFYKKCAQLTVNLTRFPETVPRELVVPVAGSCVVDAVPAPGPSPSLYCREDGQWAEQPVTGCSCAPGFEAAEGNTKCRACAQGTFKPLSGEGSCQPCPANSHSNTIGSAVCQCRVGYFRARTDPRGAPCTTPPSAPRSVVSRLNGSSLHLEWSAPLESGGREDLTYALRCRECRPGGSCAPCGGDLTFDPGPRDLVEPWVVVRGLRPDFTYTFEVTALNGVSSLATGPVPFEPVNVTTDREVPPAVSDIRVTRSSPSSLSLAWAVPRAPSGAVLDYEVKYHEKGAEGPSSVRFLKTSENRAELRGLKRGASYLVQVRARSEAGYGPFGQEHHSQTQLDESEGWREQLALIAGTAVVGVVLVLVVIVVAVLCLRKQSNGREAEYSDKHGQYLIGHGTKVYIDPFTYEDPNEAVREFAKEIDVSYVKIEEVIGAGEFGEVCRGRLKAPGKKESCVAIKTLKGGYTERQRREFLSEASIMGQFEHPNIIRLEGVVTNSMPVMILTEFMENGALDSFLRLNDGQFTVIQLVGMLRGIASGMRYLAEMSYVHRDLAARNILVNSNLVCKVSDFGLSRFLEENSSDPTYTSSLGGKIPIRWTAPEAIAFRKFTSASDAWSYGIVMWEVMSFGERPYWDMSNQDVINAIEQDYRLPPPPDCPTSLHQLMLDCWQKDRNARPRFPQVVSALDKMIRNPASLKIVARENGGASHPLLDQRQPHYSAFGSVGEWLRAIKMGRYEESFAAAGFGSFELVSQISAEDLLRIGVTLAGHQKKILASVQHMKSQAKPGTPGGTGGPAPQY

[2] = molecular target: T2, Serine/threonine-protein kinase haspin (Homo sapiens) (UniProt Q8TF76); test: Inhibition of human recombinant Haspin at 500 nM in presence of ATP by radiometric assay relative to control
T2 sequence (whole entry): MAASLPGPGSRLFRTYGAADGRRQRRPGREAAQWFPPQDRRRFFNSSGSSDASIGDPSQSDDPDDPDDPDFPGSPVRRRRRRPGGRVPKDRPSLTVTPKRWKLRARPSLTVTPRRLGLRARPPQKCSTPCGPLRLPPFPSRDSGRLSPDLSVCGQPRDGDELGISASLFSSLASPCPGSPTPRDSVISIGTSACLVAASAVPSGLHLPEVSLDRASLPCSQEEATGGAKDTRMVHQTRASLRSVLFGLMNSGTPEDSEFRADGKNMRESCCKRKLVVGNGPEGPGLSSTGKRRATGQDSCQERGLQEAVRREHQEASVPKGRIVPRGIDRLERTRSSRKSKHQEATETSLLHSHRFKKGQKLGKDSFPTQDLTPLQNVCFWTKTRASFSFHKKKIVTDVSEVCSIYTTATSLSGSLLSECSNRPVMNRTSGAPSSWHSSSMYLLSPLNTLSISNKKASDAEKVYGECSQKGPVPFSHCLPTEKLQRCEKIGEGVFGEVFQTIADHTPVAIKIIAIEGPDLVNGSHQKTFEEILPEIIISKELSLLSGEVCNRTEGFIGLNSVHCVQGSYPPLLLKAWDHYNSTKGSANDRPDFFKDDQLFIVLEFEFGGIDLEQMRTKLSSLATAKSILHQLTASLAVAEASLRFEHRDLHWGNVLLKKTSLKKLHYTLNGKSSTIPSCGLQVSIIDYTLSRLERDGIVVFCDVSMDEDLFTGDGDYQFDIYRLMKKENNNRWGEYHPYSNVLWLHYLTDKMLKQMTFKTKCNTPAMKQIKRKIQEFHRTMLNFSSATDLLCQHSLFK

[3] = molecular target: Serine/threonine-protein kinase MARK2 (Homo sapiens) (UniProt Q7KZI7); test: Inhibition of human recombinant MARK2 at 500 nM related to control ULK1
Sequence of Serine/threonine-protein kinase MARK2 (Homo sapiens) (Q7KZI7 whole entry): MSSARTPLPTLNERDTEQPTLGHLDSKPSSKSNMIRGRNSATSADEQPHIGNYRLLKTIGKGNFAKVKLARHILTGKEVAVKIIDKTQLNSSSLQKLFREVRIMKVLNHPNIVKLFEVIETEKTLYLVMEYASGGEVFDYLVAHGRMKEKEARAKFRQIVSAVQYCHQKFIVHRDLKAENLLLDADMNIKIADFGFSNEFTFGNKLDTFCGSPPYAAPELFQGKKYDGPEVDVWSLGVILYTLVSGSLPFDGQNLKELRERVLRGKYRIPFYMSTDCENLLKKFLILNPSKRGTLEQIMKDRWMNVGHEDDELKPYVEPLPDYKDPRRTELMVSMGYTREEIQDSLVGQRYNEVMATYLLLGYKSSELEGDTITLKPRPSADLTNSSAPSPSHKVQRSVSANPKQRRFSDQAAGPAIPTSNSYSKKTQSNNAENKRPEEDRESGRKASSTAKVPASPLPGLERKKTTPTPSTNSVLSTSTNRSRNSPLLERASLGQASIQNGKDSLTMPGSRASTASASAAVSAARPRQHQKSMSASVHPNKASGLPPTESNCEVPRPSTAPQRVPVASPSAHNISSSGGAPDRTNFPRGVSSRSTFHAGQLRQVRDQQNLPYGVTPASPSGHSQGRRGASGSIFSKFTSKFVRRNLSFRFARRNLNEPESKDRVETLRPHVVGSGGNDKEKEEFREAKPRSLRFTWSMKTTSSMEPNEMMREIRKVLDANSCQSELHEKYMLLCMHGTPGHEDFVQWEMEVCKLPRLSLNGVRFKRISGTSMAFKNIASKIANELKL

[4] = molecular target: Serine/threonine-protein kinase 4 (Homo sapiens) (UniProt Q13043); test: Inhibition of human recombinant MST1 at 500 nM in presence of ATP by radiometric assay relative to control
Sequence of Serine/threonine-protein kinase 4 (Homo sapiens) (Q13043 whole entry, looked up): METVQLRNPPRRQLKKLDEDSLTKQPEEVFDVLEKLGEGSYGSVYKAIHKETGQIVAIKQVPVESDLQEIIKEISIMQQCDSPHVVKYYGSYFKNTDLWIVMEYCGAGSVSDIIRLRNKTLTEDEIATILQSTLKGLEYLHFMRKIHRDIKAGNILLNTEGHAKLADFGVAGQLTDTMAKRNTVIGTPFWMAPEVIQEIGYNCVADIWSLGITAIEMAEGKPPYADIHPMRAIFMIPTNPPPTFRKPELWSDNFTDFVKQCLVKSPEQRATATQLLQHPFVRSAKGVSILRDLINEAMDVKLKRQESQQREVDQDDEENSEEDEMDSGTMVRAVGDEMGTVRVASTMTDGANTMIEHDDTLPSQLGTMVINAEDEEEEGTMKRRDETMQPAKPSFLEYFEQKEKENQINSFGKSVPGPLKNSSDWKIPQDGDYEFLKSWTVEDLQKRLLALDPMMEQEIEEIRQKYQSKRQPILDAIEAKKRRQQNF

[5] = molecular target: Calcium/calmodulin-dependent protein kinase type 1 (Homo sapiens) (UniProt Q14012); test: Inhibition of human recombinant CaMK1a at 15 nM in presence of ATP by radiometric assay relative to control
Sequence of Calcium/calmodulin-dependent protein kinase type 1 (Homo sapiens) (Q14012 whole entry, looked up): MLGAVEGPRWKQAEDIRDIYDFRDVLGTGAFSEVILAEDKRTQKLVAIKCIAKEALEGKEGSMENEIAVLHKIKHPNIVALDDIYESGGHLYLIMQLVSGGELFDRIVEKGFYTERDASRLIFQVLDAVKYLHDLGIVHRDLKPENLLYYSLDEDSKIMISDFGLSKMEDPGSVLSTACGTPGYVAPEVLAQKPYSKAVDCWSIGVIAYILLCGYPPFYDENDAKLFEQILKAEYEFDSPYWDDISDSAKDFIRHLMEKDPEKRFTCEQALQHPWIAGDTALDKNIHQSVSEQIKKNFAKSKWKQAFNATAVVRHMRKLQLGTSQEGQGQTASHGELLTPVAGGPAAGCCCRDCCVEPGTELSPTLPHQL

[6] = molecular target: T2, Serine/threonine-protein kinase haspin (Homo sapiens); test: Inhibition of human recombinant Haspin at 15 nM in presence of ATP by radiometric assay relative to control
[7] = molecular target: Vascular endothelial growth factor receptor 1 (Homo sapiens) (UniProt P17948); test: Inhibition of human recombinant FLT1 at 15 nM related to control ULK1
Sequence of Vascular endothelial growth factor receptor 1 (Homo sapiens) (P17948 whole entry): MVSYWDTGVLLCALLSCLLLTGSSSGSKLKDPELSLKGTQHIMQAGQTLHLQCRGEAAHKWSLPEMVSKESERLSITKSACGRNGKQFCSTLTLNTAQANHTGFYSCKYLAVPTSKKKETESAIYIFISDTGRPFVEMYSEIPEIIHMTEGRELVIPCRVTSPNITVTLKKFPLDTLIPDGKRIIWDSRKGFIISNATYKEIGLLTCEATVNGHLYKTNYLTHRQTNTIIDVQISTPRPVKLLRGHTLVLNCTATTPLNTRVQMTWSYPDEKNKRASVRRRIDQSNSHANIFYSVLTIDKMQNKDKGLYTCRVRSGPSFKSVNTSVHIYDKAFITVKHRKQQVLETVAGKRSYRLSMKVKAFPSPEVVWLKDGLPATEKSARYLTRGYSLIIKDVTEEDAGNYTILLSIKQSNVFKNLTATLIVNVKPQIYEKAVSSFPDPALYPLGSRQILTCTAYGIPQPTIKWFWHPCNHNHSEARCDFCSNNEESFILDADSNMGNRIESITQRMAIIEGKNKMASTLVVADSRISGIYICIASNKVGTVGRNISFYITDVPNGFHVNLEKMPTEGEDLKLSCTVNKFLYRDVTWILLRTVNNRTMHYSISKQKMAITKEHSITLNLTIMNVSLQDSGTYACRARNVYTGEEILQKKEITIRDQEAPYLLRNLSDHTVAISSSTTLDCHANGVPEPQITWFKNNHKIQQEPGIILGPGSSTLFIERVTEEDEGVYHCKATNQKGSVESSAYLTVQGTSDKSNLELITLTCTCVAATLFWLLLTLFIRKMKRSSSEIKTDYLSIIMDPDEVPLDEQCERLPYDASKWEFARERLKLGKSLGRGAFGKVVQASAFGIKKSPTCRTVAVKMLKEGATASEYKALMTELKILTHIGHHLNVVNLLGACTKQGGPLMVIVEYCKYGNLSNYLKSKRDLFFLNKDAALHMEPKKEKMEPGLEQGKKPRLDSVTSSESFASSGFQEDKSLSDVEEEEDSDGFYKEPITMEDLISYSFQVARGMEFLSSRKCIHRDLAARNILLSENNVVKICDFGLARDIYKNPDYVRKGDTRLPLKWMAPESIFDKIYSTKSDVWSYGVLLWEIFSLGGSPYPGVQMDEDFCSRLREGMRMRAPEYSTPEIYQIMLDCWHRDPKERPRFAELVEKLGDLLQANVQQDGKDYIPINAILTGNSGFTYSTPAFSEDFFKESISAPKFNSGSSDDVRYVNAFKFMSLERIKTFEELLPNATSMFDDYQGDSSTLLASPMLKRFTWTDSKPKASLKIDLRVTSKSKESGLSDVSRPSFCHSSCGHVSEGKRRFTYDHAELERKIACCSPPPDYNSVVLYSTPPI

inhibition [1]	inhibition [2]	fold change (FC) [3]	inhibition [4]	inhibition [5]	inhibition [6]	fold change (FC) [7]	Compound
0%	0%	0.68	0%				CNC(=O)c1ccccc1Oc1nc(Nc2cc(OC)c(OC)c(OC)c2)ncc1Br
				7%	0%	0.1	CC(C)[C@H](NC(=O)c1cc(-c2cnn3cc(-c4ccc(OCCN5CCCCC5)cc4)cnc23)cs1)C(F)(F)F
